For orientation: EC50 means the concentration at which the effect is half-maximal.

Results on eight compounds are retold here after patent publication US12139505B2, “Compositions useful in therapy of autophagy-related pathologies, and methods of making and using the same” (The University of Toledo, priority 2017, dated 2024).

“Also recorded” adds a separate entry of the source.

The subject of one data set is RG2 glioma cells. The experiment in a line: Autophagic flux assay (LC3-II western blot in the presence of bafilomycin-A1). Format: cell-based, rat. The settings on record: RG2 glioma cells, 4 h, 50 nM bafilomycin-A1, western blot. As for the experimental part:
In the assay, cells are treated with subtoxic concentrations of bafilomycin-A, which blocks lysosomal acidification. This prevents autophagosome fusion with lysosomes at a specific point. For example, RG2 glioma cells (or other cell types) are “clamped” by addition of 10-50 nM bafilomycin-A1 to block autophagosome fusion with lysosomes and eliminate autophagy clearance. Then, autophagy flux is measured by the conjugation of phosphatidylethanolamine to LC3-I, yielding an electrophoretically separable LC3-II by western blot. LC3-II acts as a link between nascent autophagosomes and cargo being directed into these structures. An autophagy enhancer will increase LC3-II in the presence of bafilomycin, whereas a compound that inhibits autophagy completion will not do so. Thus, the L3A-I to LC3A-II conversion in the presence of bafilomycin-A1 constitutes a valid measure of autophagy.
For the assays, rat glioma cells RG2 (ATCC® CRL-2433™; RG2 cells) were cultured. […] The cells were then incubated for an additional 4 h. At termination, the cell culture medium was removed, cells were washed with PBS and lysed on ice in Pierce RIPA buffer containing protease and phosphatase inhibitors.
Western Blotting: The proteins were electrophoresed and wet-blotted to polyvinylidine difluoride membranes, blocked overnight in 4% bovine serum albumin, and developed using antibodies obtained from Cell Signaling Technology (L3A: cat #. 4599; ULK1: cat #. 8054, ULK1(p757): cat #. 6880).
RG2 glioma cells were treated without drug (first column in FIG. 8A) or 4 h with 50 nM bafilomycin-A1 (BAF), the indicated concentration of LK, or the phosphonate analog 2-isopropyl-LK-3-phosphonate. The western blot results are shown in FIG. 8A, where the lower band corresponds to LC3-II. An increase in the intensity of this band in the presence of bafilomycin-A1 indicates increased autophagic flux. […] Similar results are shown in FIG. 9 with respect to the LK-P compound 2-butyl-lanthionine-phosphonate (also referred to as 2-n-butyl-lanthionine-phosphonate or 2-n-butyl-LK-P).
RG2 glioma cells (American Tissue Type Collection, ATTC, Rockville MD USA) were treated for 4 h with 50 nM bafilomycin-A1 (previously dissolved to 1000× final concentration in dimethylsulfoxide). Thirty minutes after addition of bafilomycin, cells were treated with test agents at 100× final concentration. Cells were lysed in RIPA buffer containing protease and phosphatase inhibitors. Protein concentration was assayed and normalized to constant values (typically 5-7 mg/mL). Proteins were electrophoresed across 4-20% polyacrylamide gels and wet blotted onto polyvinylidine difluoride (PVDF) membranes. Proteins were blotted with commercially available antibodies against LC3.
A general note: A western blot detects proteins with antibodies after separation by electrophoresis.

Data set [1] can be described thus: Stability of the isolated solid to high vacuum. It counts as physicochemical. The note with it: isolated white solid, at least overnight.
In another data set the test system is HeLa cells. The experiment in a line: Rescue of HeLa cells from TNFa toxicity, tetrazolium reduction assay. The settings on record: 20 h 10 ng/mL TNFa, 10 micromolar cycloheximide. Format: cell-based. As for the experimental part: HeLa cells were treated 20 h with 10 ng/mL recombinant human TNFa in the presence of 10 micromolar cycloheximide and viability measured by tetrazolium reduction assay.

The subject of another data set is ULK1 system in RG2 cells. In words: ULK1/ULK1(p757) quantitative autophagy stimulation assay. It counts as cell-based, rat. The note with it: 24 h in RG2 cells; read-out: EC50 on the ULK1 system (ULK1 increase and ULK1(p757) decrease).
The test system of another data set is SOD1^G93A mouse. The note with it: cited from earlier work.
A further data set relates to 3×Tg-AD mouse. The note with it: cited from earlier work.
A further data set has as its system pMCAO. The settings on record: after pMCAO; cited from earlier work.
Another data set deals with C6 glioma tumor. The note with it: C6 glioma xenograft into rat cortices; cited from earlier work.
For data set [2] the following is noted: measurement of brain LKE levels and animal studies; cited from earlier work.
The next data set concerns people with ALS. The settings on record: cited from earlier work.

From the text for ULK1 system in RG2 cells: For validation purposes, a second, quantitative autophagy stimulation assay was utilized.

As for `CCCCC1=C(P(=O)(O)O)N[C@H](C(=O)O)CS1`, the “autophagic flux / autophagy stimulation (LC3-II band in the presence of bafilomycin-A1)” value (“autophagic flux / autophagy stimulation” below) in the data set on RG2 glioma cells was “comparable activity; also recorded: stimulate autophagy to varying degrees; also recorded: greater autophagy activation effect than LKE”; with RG2 glioma cells (listed as 2-butyl-LK-P), “more effective at inducing autophagic flux than, inter alia, LK-E”. Further, in [1], the “stability to high vacuum pressures” value is on record as “stable to high vacuum pressures at least overnight without visual or spectral decomposition”.

Regarding `CC(C)C1=C(P(=O)(O)O)NCCS1` [2-isopropyl-AECK-P], the “autophagic flux / autophagy stimulation” value in the data set on RG2 glioma cells is “greater autophagy activation effect than LKE”; in the data set with RG2 glioma cells (listed as 2-isopropyl AECK-P) it was “comparable activity”.

`CC(C)C1=C(P(=O)(O)O)N[C@H](C(=O)O)CS1` [2-isopropyl-LK-P, 2-isopropyl lanthionine ketimine phosphonate]: the “autophagic flux / autophagy stimulation” value in the data set with RG2 glioma cells is on record as “stimulates autophagy in RG2 cells at low micromolar concentrations; also recorded: much more potent stimulator of autophagy than LK; also recorded: comparable activity; also recorded: stimulate autophagy to varying degrees; also recorded: increase autophagic flux”; with RG2 glioma cells (listed as 2-isopropyl lanthionine-ketimine-phosphonate), “clearly was more potent at 10 mM than was LK”; in the data set with RG2 glioma cells (listed as 2-isopropyl-lanthionine-ketimine-3-phosphonate) it was “clearly more potent at 10 μM than LK was”. The “cell death stemming from TNFa treatment” value in the data set on HeLa cells is listed as “reduced cell death”. The EC50 with HeLa cells (Homo sapiens, HeLa, compound 1 h before, read-out: EC50% for reduction of cell death from TNFa) was ~10 mM. Also, in data set [1], the “stability to high vacuum pressures” value was “stable to high vacuum pressures at least overnight without visual or spectral decomposition”.

Consider `CCOC(=O)[C@@H]1CSC(CC)=C(C(=O)O)N1` [Compound 2-ethyl-LKE], for which, in the data set on RG2 glioma cells, the “autophagic flux / autophagy stimulation” value was “stimulate autophagy in RG2 cells”.

As for `O=C(O)C1=CSC[C@@H](C(=O)O)N1` [LK, (5R)-3,5,-dicarboxy-1-thia-4-aza-2-cyclohexene, reference compound], the “autophagic flux / autophagy stimulation” value in the data set with RG2 glioma cells was “increase autophagic flux”.

Regarding `CCOC(=O)C1=CSCC(C(=O)O)N1` (stereo not shown) [LKE, lanthionine ketenamine ethyl ester], the “autophagic flux / autophagy stimulation” value in the data set on RG2 glioma cells is given as “stimulate autophagy to varying degrees”. In the data set on ULK1 system in RG2 cells, the EC50 was ~50 nM. Besides, the “lifespan and motor function” value with SOD1^G93A mouse was “increases lifespan and slows decline of motor function”. For the same compound, the “amyloid burden, phospho-tau, microglial activation, cognitive decline” value in the data set on 3×Tg-AD mouse is “decreases amyloid burden inside neurons and in plaques, decreases phospho-tau accumulation, decreases microglial activation, and slows cognitive decline”. The “infarct volume and functional recovery” value in the data set with pMCAO is “decreases infarct volume and improves functional recovery”. The tumor growth result in the data set with C6 glioma tumor was “slows growth of C6 glioma tumor”. Besides, the “βββ (blood brain barrier) penetrability” value in data set [2] is recorded as “good βββ penetrability”.

`Nc1nc2ccc(OC(F)(F)F)cc2s1` [Riluzole]: the prolongation of life in the data set with people with ALS (ALS patients) is 2-3 months.

As for `CC1=NN(c2ccccc2)C(=O)C1` [edaravone], the “clinical decline in daily functioning” value in the data set with people with ALS (people with ALS) is on record as “slows the clinical decline in daily functioning”.
